Here are results for 15 compounds from ChEMBL document CHEMBL1157964, “Spasmolytic effects of nonprenylated rotenoid constituents of Boerhaavia diffusa roots” (2006).

Calls of active or inactive are those of the source. The calls are words filed in the database; no cut-off is given here.

One assay deals with Ileum. Briefly: Antispasmodic activity in guinea pig ileum assessed as inhibition of acetylcholine-induced contraction at 30 ug/mL. Format: functional. The note with it: Cavia porcellus.
The term Emax denotes the maximal effect, on the per cent scale that the assay sets. As to `COc1ccccc1-c1coc2cc(O)c(C)c(O)c2c1=O`, the Emax at 30 µg/mL came out at 36.8%.
The same measure, in the same setting: with `COc1cc(O)c2c(c1)O[C@@H]1COc3c(O)cccc3[C@@]1(O)C2=O` the figure was 19.4%.
Regarding `COC1Oc2cc(O)ccc2-c2c1oc1cc(O)c(C)c(O)c1c2=O` (stereo not given), the result was inactive.
On to `COc1cc2c(c(O)c1C)C(=O)[C@]1(O)c3cccc(O)c3OC[C@H]1O2`, for which the outcome was inactive.
On to `COc1cc2oc3c(c(=O)c2c(O)c1C)-c1cccc(O)c1OC3OC` (stereo not given), for which the result was inactive.
On the same count and under the same terms, next, `O=c1c2c(oc3cc(O)cc(O)c13)C(O)Oc1ccccc1-2` (stereo not given): “inactive”.
As for `COc1cc2oc3c(c(=O)c2c(O)c1C)-c1cccc(O)c1OC3O` (stereo not given) [9-O-METHYL-4-HYDROXYBOERAVINONE B], the Emax at 30 µg/mL worked out at 100%.
Still for that read-out and setting: next, `COc1cc2oc3c(c(=O)c2c(O)c1O)-c1ccccc1OC3O` (stereo not given) [9-O-METHYL-10-HYDROXYCOCCINEONE B]: 36.1%.
For the compound `Cc1c(O)cc2oc3c(c(=O)c2c1O)-c1ccc(O)cc1OC3O` (stereo not given) [BOERAVINONE E], the Emax at 30 µg/mL stood at 100%.
On the same count and under the same terms, with `Cc1c(O)cc2oc3c(=O)oc4cc(O)ccc4c3c(=O)c2c1O` [BOERAVINONE F] the figure was 50%.
The same measure, in the same setting: next, `COc1cc(O)c2c(=O)c3c(oc2c1)C(OC)Oc1c(O)cccc1-3` (stereo not given) [BOERAVINONE G]: 60%; `COc1cc2c(c(O)c1OC)C(=O)[C@]1(O)c3ccccc3OC[C@H]1O2` [COCCINEONE E]: 25.2%.
Same read-out and setting: next, `COc1ccc(Cc2nccc3cc(OC)c(OC)cc23)cc1OC` [PAPAVERINE]: 72.3%.

The subject of another assay is Ileum. In words: Antispasmodic activity in guinea pig ileum assessed as inhibition of acetylcholine-induced contraction at 1 uM. Format: functional, Cavia porcellus.
Conditions: not given
Set-up: scale not given: the % may be the effect or the level left.
As to `COC(=O)C1=C(C)NC(C)=C(C(=O)OC)C1c1ccccc1[N+](=O)[O-]` [NIFEDIPINE], the Activity is on record as 47.3%.

The next assay has as its system Ileum. Briefly: Antispasmodic activity in guinea pig ileum assessed as inhibition of acetylcholine-induced contraction at 10 uM. Format: functional, Cavia porcellus. Set-up: scale not given: the % may be the effect or the level left.
Conditions: not given
In the case of `CC(=O)C1=C(O)[C@@H]2[C@H]3c4c[nH]c5cccc(c45)C[C@H]3C(C)(C)N2C1=O` [CYCLOPIAZONIC ACID], the Activity is on record as 52.3%.
